Test results taken from article PMC12059629, “N-Terminal domain homologs of the orange carotenoid protein increase quenching of cyanobacterial phycobilisomes” (Plant Physiology, 2024).

Target: T1, HCP4 (AnHCP4, holo-HCP4) (Nostoc sp. PCC 7120 = FACHB-418, UniProt Q8YMJ2)
T1 construct: gene all4941; C-terminal His-tag (pCDF-all4941-Ctag), expressed in E. coli BL21(DE3) with pAC-CANthipi; holo separated from apo on MonoQ
T1 sequence (Q8YMJ2 1-171): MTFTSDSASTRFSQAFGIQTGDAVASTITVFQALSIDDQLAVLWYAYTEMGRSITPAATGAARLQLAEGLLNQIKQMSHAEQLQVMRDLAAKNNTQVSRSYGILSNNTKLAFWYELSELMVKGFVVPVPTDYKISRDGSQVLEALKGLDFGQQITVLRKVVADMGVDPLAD
Assay: holoprotein purified from carotenoid-producing E. coli; separated from apoprotein by anion exchange; absorbance at […] nm
Assay type: binding
Settings: 50 mM Tris pH 8; 1:1 HCP4:CAN ratio used for quantification

CC1=C(/C=C/C(C)=C/C=C/C(C)=C/C=C/C=C(C)/C=C/C=C(C)/C=C/C2=C(C)C(=O)CCC2(C)C)C(C)(C)CCC1=O [canthaxanthin]
holoprotein purified from carotenoid-producing E. coli; separated from apoprotei: For HCP4, the holoprotein was eluted in the flow through and column wash
